Measured values as given in PubChem BioAssay (NCI).
Several values for one entry are separate records, joined by “and”; a condition that tells them apart may be missing. Equal values may be shown once.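 1) Cells in 96-well plates. 2) Compound, 48 h, 5 concentrations. 3) Linear interpolation between surrounding doses. 4) Unreached endpoint = highest concentration. Abbreviation: GI50, concentration required for 50% inhibition of growth. TGI denotes the concentration required for complete inhibition of growth.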

What was measured:
Assay in all cases: inhibition of tumour cell growth, NCI panel, 48 h
M19-MEL melanoma = test system: M19-MEL melanoma
U251 CNS = test system: U251 CNS
KM20L2 colon = test system: KM20L2 colon
SNB-19 CNS = test system: SNB-19 CNS
SK-MEL-5 melanoma = test system: SK-MEL-5 melanoma
NCI-H522 lung = test system: NCI-H522 lung
UACC-62 melanoma = test system: UACC-62 melanoma
DLD-1 colon = test system: DLD-1 colon
OVCAR-3 ovarian = test system: OVCAR-3 ovarian
HS 578T breast = test system: HS 578T breast

Row | Compound | TGI (M19-MEL melanoma) | TGI (U251 CNS) | TGI (KM20L2 colon) | TGI (SNB-19 CNS) | TGI (SK-MEL-5 melanoma) | TGI (NCI-H522 lung) | TGI (UACC-62 melanoma) | TGI (DLD-1 colon) | TGI (OVCAR-3 ovarian) | TGI (HS 578T breast) | GI50 (HS 578T breast) | GI50 (U251 CNS) | GI50 (SNB-19 CNS) | GI50 (SK-MEL-5 melanoma) | GI50 (NCI-H522 lung) | GI50 (UACC-62 melanoma) | GI50 (DLD-1 colon) | GI50 (OVCAR-3 ovarian)
1 | Cc1cccc(C)c1NC(=O)C1C(=O)N(c2c(C)cccc2C)C(=O)/C1=N\NC(N)=S (configuration not stated) | > 100 µM | > 100 µM | > 100 µM | > 100 µM | > 100 µM | > 100 µM | > 100 µM | > 100 µM | > 100 µM | – | – | – | – | – | – | – | – | –
2 | Cc1ccc(-c2cc(-c3ccccc3)c(C#N)c(=O)n2C2OC(CO)C(O)C(O)C2O)cc1 (configuration not stated) | > 100 µM | > 100 µM | > 100 µM | > 100 µM | > 100 µM | > 100 µM | > 100 µM | > 100 µM | > 100 µM | – | – | – | – | – | – | – | – | –
3 | COc1ccc(N2C(=O)[C@H]3CC(C)c4c([nH]c5ccccc45)[C@H]3C2=O)cc1 (some centres not stated) | 55.5 µM | 20.4 µM | 12.7 µM | > 71.8 µM | 36.6 µM | 4.24 µM | 22.7 µM | > 41.5 µM | 6.68 µM | 33.4 µM | – | – | – | – | – | – | – | –
4 | CC[C@]1(O)C(=O)OCc2c1cc1n(c2=O)Cc2cc3c(N)cccc3nc2-1 | > 100 µM | > 100 µM | > 100 µM | > 100 µM | > 100 µM | > 100 µM | > 100 µM | > 100 µM | > 100 µM | – | – | – | – | – | – | – | – | –
5 | COc1ccc(/C=C2\CCCC(C(NO)c3ccc(OC)cc3)C2=NO)cc1 (configuration not stated) | > 100 µM | > 100 µM | > 100 µM | > 100 µM | 47.6 µM | 82 µM | > 100 µM | > 100 µM | > 100 µM | – | – | – | – | – | – | – | – | –
6 | CC(=O)NC(CCCCNC(=O)NCCCl)C(=O)NCc1ccccc1 (configuration not stated) | > 100 µM | > 100 µM | > 100 µM | > 100 µM | > 100 µM | > 100 µM | > 100 µM | > 100 µM | > 100 µM | – | – | – | – | – | – | – | – | –
7 | NCCCCNc1ccc2c(=O)[nH][nH]c(=O)c2c1 | > 100 µM | > 100 µM | > 100 µM | > 100 µM | > 100 µM | > 100 µM | > 100 µM | > 100 µM | > 100 µM | – | – | – | – | – | – | – | – | –
8 | C[C@]12CCCC(=O)C1(O)C[C@H](C(=O)O)CC2 (some centres not stated) | > 100 µM | > 100 µM | > 100 µM | > 100 µM | > 100 µM | > 100 µM | > 100 µM | > 100 µM | > 100 µM | – | – | – | – | – | – | – | – | –
9 | COC(=O)C(CC(=O)Nc1ccc(C)cc1)C(=O)C(=O)Nc1ccccc1C(C)C (configuration not stated) | > 100 µM | > 100 µM | > 100 µM | > 100 µM | > 100 µM | > 100 µM | > 100 µM | > 100 µM | > 100 µM | – | – | – | – | – | – | – | – | –
10 | C/C=C1\NC(=O)[C@H]2CSSCCC=C[C@H](CC(=O)N[C@H](C(C)C)C(=O)N2)OC(=O)[C@H](C(C)C)NC1=O | 0.0564 µM and 0.065 µM | < 0.01 µM and 0.00147 µM and < 0.0252 µM | 0.00796 µM | 0.0301 µM and 0.0538 µM | < 0.01 µM and 0.000359 µM | < 0.01 µM and 0.000166 µM | < 0.01 µM and 0.0113 µM | 0.289 µM | < 0.0108 µM and 0.00294 µM | 0.0439 µM | < 10 nM | < 10 nM and 0.136 nM | < 10 nM | < 10 nM | < 10 nM and 0.105 nM | < 10 nM | 10.2 nM | < 10 nM
11 | CCOC(=O)/C=C1\CCCC12OCCO2 | > 100 µM | > 100 µM | > 100 µM | > 100 µM | > 100 µM | 7.38 µM | > 100 µM | > 100 µM | > 100 µM | – | – | – | – | – | – | – | – | –
12 | CCOP(=O)(OCC)OC(C#N)c1ccc(-c2ccccc2)cc1 (configuration not stated) | 50.3 µM | 28.9 µM | > 100 µM | > 100 µM | 31.8 µM | 28.5 µM | 29.2 µM | 36.9 µM | 39.1 µM | – | – | – | – | – | – | – | – | –
13 | COC(=O)[C@]12CCC(C)[C@H](C)[C@H]1C1=CCC3[C@@]4(C)CC[C@H](OC(C)=O)C(C)(C)C4CC[C@@]3(C)C1(C)C(O)C2 (some centres not stated) | > 100 µM | > 100 µM | > 100 µM | > 100 µM | > 100 µM | > 100 µM | > 100 µM | > 100 µM | > 100 µM | – | – | – | – | – | – | – | – | –
